Measurements from the kinase profiling compilation of Christmann-Franck et al. (2016).

Key:
Assay in all cases: radiometric filter-binding kinase assay, Kinase HotSpot
Settings in all cases: compound 0.5 µM; ATP 10 µM
STK10 (human) = STK10 (human) (UniProt O94804)
ZAP70 (human) = ZAP70 (human) (UniProt P43403)
WNK2 (human) = WNK2 (human) (UniProt Q9Y3S1)
DYRK2 (human) = DYRK2 (human) (UniProt Q92630)
MAPK14 (human) = MAPK14 (human) (UniProt Q16539)
ITK (human) = ITK (human) (UniProt Q08881)
MAP4K5 (human) = MAP4K5 (human) (UniProt Q9Y4K4)
CAMK2B (human) = CAMK2B (human) (UniProt Q13554)
MAP3K5 (human) = MAP3K5 (human) (UniProt Q99683)
NEK11 (human) = NEK11 (human) (UniProt Q8NG66)
PHKG1 (human) = PHKG1 (human) (UniProt Q16816)
PAK7 (human) = PAK7 (human) (UniProt Q9P286)
NEK2 (human) = NEK2 (human) (UniProt P51955)
RPS6KA6 KD1 KD2 (human) = RPS6KA6 KD1 KD2 (human) (UniProt Q9UK32)
STK11 (human) = STK11 (human) (UniProt Q15831)
ROCK2 (human) = ROCK2 (human) (UniProt O75116)
NUAK1 (human) = NUAK1 (human) (UniProt O60285)
STK25 (human) = STK25 (human) (UniProt O00506)
ACVRL1 (human) = ACVRL1 (human) (UniProt P37023)
FYN (human) = FYN (human) (UniProt P06241)
[1] = test system: FLT4 (human), P35916 [Q890H]
CAMK2A (human) = CAMK2A (human) (UniProt Q9UQM7)
CDK2 CCNA2 (human) = CDK2 CCNA2 (human) (UniProt P24941+P20248)
MAPK3 (human) = MAPK3 (human) (UniProt P27361)
DYRK4 (human) = DYRK4 (human) (UniProt Q9NR20)
FGFR3 (human) = FGFR3 (human) (UniProt P22607)
[2] = biological target: TYK2 JH1 catalytic (human) (UniProt P29597)
CLK1 (human) = CLK1 (human) (UniProt P49759)
FRK (human) = FRK (human) (UniProt P42685)
ABL2 (human) = ABL2 (human) (UniProt P42684)
BRSK1 (human) = BRSK1 (human) (UniProt Q8TDC3)
[3] = test system: MAP2K6 (human), P52564 [S207E/T211E]
STK24 (human) = STK24 (human) (UniProt Q9Y6E0)
MINK1 (human) = MINK1 (human) (UniProt Q8N4C8)
FGFR1 (human) = FGFR1 (human) (UniProt P11362)
MERTK (human) = MERTK (human) (UniProt Q12866)
PTK2B (human) = PTK2B (human) (UniProt Q14289)
DSTYK (human) = DSTYK (human) (UniProt Q6XUX3)
MAPK8 (human) = MAPK8 (human) (UniProt P45983)
AKT1 (human) = AKT1 (human) (UniProt P31749)
PAK4 (human) = PAK4 (human) (UniProt O96013)
GRK7 (human) = GRK7 (human) (UniProt Q8WTQ7)

Chain of STK24 (human) (Q9Y6E0 whole entry, looked up): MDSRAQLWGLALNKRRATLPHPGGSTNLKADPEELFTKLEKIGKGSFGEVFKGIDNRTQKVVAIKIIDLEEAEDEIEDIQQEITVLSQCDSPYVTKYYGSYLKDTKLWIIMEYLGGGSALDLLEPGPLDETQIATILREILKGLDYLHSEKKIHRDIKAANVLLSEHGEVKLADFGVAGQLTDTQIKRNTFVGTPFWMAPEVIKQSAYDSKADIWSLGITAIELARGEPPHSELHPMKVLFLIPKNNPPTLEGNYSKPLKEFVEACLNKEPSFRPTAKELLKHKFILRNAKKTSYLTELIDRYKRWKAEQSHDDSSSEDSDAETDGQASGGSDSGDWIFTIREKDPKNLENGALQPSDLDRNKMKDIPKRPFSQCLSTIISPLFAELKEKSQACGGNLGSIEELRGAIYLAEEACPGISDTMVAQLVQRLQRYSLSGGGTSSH
Chain of MERTK (human) (Q12866 whole entry, looked up): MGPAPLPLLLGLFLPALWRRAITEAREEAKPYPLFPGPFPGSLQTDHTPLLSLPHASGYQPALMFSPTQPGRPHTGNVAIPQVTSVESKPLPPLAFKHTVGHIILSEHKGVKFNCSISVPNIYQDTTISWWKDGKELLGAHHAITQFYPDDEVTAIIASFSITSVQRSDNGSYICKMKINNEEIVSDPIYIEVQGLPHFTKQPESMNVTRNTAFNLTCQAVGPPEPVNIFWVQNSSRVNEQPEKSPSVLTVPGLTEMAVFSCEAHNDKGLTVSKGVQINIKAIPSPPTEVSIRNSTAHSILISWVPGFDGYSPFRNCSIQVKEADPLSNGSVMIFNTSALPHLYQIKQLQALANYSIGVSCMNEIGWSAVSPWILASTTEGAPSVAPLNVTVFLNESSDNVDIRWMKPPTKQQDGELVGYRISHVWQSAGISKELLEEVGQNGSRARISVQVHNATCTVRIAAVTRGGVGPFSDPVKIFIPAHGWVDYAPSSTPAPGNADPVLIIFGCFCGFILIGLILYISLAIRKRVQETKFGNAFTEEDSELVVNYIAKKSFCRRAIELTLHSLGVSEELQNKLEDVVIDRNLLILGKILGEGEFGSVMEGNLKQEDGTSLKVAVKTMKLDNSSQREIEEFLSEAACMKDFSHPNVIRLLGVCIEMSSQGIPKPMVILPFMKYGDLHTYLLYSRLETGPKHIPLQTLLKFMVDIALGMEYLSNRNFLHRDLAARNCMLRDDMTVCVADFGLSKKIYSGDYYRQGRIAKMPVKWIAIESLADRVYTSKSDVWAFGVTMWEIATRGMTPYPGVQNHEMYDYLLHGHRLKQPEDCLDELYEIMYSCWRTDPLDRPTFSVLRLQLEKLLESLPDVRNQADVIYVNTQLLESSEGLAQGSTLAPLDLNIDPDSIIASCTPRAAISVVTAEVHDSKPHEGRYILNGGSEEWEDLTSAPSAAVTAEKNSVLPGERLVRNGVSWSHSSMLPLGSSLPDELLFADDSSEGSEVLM
Chain of PAK7 (human) (Q9P286 whole entry, looked up): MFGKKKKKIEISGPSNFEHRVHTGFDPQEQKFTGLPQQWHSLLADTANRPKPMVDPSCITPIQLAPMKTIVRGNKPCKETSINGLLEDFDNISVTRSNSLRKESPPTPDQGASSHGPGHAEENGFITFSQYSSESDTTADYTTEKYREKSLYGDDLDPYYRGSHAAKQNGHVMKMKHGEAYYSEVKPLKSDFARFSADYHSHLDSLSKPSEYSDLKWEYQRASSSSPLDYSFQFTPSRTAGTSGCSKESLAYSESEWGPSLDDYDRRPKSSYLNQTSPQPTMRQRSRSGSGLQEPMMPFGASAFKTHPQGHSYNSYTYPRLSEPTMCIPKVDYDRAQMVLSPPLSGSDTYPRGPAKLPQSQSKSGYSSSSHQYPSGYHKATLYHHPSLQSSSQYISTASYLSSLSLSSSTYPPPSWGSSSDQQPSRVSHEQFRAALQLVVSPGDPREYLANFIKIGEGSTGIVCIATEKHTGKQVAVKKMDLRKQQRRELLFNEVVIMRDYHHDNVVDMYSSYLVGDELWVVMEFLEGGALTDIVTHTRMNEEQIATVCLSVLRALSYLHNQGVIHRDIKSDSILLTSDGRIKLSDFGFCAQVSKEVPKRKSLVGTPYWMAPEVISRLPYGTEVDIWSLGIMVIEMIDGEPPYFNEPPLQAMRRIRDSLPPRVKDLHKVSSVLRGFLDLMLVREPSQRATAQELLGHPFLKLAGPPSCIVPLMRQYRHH
Chain of PTK2B (human) (Q14289 whole entry, looked up): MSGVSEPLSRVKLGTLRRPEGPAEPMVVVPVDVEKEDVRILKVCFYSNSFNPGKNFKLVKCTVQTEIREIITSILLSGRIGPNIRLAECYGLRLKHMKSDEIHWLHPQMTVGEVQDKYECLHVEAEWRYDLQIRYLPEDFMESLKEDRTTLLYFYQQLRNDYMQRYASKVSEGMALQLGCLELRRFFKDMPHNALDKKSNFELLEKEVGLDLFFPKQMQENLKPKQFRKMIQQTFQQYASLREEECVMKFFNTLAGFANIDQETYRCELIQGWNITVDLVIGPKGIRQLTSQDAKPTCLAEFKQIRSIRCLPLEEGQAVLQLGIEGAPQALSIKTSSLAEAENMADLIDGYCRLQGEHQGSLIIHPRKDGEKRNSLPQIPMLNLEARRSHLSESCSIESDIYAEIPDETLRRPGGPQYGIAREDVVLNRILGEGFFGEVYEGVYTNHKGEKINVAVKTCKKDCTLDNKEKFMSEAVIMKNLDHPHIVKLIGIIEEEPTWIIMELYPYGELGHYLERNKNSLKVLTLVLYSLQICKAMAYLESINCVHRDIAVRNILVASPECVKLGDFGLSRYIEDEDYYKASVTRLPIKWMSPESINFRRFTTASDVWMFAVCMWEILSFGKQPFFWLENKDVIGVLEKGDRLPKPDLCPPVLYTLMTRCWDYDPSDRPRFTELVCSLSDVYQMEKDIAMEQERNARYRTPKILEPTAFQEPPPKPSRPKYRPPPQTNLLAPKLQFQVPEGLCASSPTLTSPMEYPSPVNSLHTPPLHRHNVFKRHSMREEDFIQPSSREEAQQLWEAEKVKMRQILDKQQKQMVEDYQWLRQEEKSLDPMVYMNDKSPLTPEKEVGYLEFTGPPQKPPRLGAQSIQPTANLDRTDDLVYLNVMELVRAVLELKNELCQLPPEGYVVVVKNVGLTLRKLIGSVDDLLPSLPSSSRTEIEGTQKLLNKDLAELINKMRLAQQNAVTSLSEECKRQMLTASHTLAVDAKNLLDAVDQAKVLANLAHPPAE
Chain of ROCK2 (human) (O75116 whole entry, looked up): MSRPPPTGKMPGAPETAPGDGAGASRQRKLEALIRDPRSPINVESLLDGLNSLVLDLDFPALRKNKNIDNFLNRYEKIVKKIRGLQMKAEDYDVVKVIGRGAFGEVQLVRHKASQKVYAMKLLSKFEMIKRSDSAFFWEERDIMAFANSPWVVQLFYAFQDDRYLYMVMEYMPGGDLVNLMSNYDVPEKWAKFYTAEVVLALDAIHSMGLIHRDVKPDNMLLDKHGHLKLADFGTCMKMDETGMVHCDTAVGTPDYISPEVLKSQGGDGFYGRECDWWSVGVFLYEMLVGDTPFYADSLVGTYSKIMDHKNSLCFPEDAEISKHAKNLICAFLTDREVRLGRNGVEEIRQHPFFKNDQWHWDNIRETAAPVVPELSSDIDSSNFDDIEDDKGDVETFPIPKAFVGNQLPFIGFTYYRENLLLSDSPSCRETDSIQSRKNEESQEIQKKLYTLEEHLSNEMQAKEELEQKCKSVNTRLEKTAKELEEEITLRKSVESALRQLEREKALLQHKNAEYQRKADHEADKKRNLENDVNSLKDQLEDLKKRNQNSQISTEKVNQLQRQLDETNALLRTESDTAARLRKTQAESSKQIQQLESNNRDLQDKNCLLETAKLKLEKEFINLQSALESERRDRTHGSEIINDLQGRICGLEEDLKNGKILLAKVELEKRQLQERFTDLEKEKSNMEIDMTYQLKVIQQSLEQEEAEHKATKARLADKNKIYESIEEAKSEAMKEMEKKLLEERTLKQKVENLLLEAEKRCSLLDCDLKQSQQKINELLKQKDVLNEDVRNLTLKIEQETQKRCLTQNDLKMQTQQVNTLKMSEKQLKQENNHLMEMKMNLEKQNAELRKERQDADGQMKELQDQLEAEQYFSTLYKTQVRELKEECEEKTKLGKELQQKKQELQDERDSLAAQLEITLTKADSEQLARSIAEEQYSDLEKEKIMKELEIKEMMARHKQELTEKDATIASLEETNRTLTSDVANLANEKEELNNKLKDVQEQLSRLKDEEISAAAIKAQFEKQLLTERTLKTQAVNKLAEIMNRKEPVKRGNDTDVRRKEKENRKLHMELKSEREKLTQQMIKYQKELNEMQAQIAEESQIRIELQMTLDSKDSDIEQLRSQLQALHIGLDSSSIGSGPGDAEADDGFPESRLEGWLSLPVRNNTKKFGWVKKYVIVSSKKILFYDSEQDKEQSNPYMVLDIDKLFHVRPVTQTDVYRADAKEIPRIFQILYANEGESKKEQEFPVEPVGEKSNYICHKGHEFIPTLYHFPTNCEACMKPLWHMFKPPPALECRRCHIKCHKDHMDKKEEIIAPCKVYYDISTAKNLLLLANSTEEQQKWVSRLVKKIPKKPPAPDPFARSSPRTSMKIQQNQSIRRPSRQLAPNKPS
Chain of CLK1 (human) (P49759 whole entry, looked up): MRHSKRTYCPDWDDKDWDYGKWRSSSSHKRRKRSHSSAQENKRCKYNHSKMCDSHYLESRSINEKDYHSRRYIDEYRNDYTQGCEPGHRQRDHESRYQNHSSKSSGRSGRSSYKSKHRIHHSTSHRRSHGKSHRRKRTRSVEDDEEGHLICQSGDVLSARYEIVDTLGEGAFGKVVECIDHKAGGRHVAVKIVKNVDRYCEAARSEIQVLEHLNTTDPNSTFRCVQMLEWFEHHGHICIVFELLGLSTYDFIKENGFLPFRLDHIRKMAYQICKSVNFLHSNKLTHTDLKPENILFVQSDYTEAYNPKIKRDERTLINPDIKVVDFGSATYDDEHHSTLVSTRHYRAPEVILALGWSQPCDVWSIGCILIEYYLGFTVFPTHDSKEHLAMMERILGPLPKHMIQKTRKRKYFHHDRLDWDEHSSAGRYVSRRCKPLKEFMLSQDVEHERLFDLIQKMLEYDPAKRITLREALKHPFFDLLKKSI

In the case of `Cn1c2ccccc2c2c3c(c4c5ccccc5n(CCC#N)c4c21)CNC3=O`, the residual activity (STK10 (human)) is reported as 20.1%, the residual activity (ZAP70 (human)) is reported as 77.7% and the residual activity (WNK2 (human)) is reported as 103%. It also gave a residual activity (DYRK2 (human)) of 48.9%, a residual activity (MAPK14 (human)) of 93.5% and a residual activity (ITK (human)) of 4.32%. It also gave a residual activity (MAP4K5 (human)) of 4.18%, a residual activity (CAMK2B (human)) of 51.3% and a residual activity (MAP3K5 (human)) of 49.8%. The residual activity (NEK11 (human)) was 110%, the residual activity (PHKG1 (human)) was 1.76% and the residual activity (PAK7 (human)) was 37.1%. For the same compound, the residual activity (NEK2 (human)) was 89.9%, the residual activity (RPS6KA6 KD1 KD2 (human)) was 4.2% and the residual activity (STK11 (human)) was 31.8%. The residual activity (ROCK2 (human)) was 48.5%, the residual activity (NUAK1 (human)) was 3.86% and the residual activity (STK25 (human)) was 83.9%. For the same compound, the residual activity (ACVRL1 (human)) was 73.6%, the residual activity (FYN (human)) was 90.6% and the residual activity [1] was 38.2%. For the same compound, the residual activity (CAMK2A (human)) was 19.1%, the residual activity (CDK2 CCNA2 (human)) was 20.8% and the residual activity (MAPK3 (human)) was 72.6%. It also gave a residual activity (DYRK4 (human)) of 95.7%, a residual activity (FGFR3 (human)) of 76.7% and a residual activity [2] of 2.62%. For the same compound, the residual activity (CLK1 (human)) was 69.9%, the residual activity (FRK (human)) was 84.7% and the residual activity (ABL2 (human)) was 42.3%. For the same compound, the residual activity (BRSK1 (human)) was 20.2%, the residual activity [3] was 21.1% and the residual activity (STK24 (human)) was 62.8%. It also gave a residual activity (MINK1 (human)) of 2.48%, a residual activity (FGFR1 (human)) of 63.3% and a residual activity (MERTK (human)) of 59.9%. It also gave a residual activity (PTK2B (human)) of 26.7%, a residual activity (DSTYK (human)) of 9.91% and a residual activity (MAPK8 (human)) of 78.7%. For the same compound, the residual activity (AKT1 (human)) was 108%, the residual activity (PAK4 (human)) was 44% and the residual activity (GRK7 (human)) was 37.9%.

`Cc1cccc(-c2nc(C(C)(C)C)[nH]c2-c2ccc3c(c2)OCO3)n1` gave a residual activity (STK10 (human)) of 94.5%, a residual activity (ZAP70 (human)) of 106% and a residual activity (WNK2 (human)) of 105%. For the same compound, the residual activity (DYRK2 (human)) was 108%, the residual activity (MAPK14 (human)) was 89.7% and the residual activity (ITK (human)) was 95.8%. It also gave a residual activity (MAP4K5 (human)) of 99.2%, a residual activity (CAMK2B (human)) of 96.2% and a residual activity (MAP3K5 (human)) of 103%. The residual activity (NEK11 (human)) was 90.3%, the residual activity (PHKG1 (human)) was 87.6% and the residual activity (PAK7 (human)) was 92.7%. The residual activity (NEK2 (human)) was 107%, the residual activity (RPS6KA6 KD1 KD2 (human)) was 107% and the residual activity (STK11 (human)) was 91.3%. It also gave a residual activity (ROCK2 (human)) of 104%, a residual activity (NUAK1 (human)) of 97.3% and a residual activity (STK25 (human)) of 104%. For the same compound, the residual activity (ACVRL1 (human)) was 127%, the residual activity (FYN (human)) was 108% and the residual activity [1] was 99.8%. For the same compound, the residual activity (CAMK2A (human)) was 103%, the residual activity (CDK2 CCNA2 (human)) was 117% and the residual activity (MAPK3 (human)) was 111%. For the same compound, the residual activity (DYRK4 (human)) was 89.7%, the residual activity (FGFR3 (human)) was 96.6% and the residual activity [2] was 102%. It also gave a residual activity (CLK1 (human)) of 98%, a residual activity (FRK (human)) of 98.8% and a residual activity (ABL2 (human)) of 95.7%. The residual activity (BRSK1 (human)) was 101%, the residual activity [3] was 105% and the residual activity (STK24 (human)) was 100%. The residual activity (MINK1 (human)) was 98.4%, the residual activity (FGFR1 (human)) was 90.8% and the residual activity (MERTK (human)) was 82%. It also gave a residual activity (PTK2B (human)) of 91.3%, a residual activity (DSTYK (human)) of 89.1% and a residual activity (MAPK8 (human)) of 95.7%. The residual activity (AKT1 (human)) was 94.6%, the residual activity (PAK4 (human)) was 77.5% and the residual activity (GRK7 (human)) was 103%.

Work on `CCCCc1c(-c2ccc(OC)cc2)[nH]c2nccnc12` yielded a residual activity (STK10 (human)) of 95.4%, a residual activity (ZAP70 (human)) of 74.2% and a residual activity (WNK2 (human)) of 112%. The residual activity (DYRK2 (human)) was 92.9%, the residual activity (MAPK14 (human)) was 112% and the residual activity (ITK (human)) was 99.4%. The residual activity (MAP4K5 (human)) was 63.8%, the residual activity (CAMK2B (human)) was 97.6% and the residual activity (MAP3K5 (human)) was 95%. The residual activity (NEK11 (human)) was 93.6%, the residual activity (PHKG1 (human)) was 89.4% and the residual activity (PAK7 (human)) was 88.1%. It also gave a residual activity (NEK2 (human)) of 115%, a residual activity (RPS6KA6 KD1 KD2 (human)) of 78.2% and a residual activity (STK11 (human)) of 74.5%. It also gave a residual activity (ROCK2 (human)) of 97.2%, a residual activity (NUAK1 (human)) of 25% and a residual activity (STK25 (human)) of 90.3%. For the same compound, the residual activity (ACVRL1 (human)) was 77%, the residual activity (FYN (human)) was 61.3% and the residual activity [1] was 81.1%. For the same compound, the residual activity (CAMK2A (human)) was 100%, the residual activity (CDK2 CCNA2 (human)) was 36.3% and the residual activity (MAPK3 (human)) was 111%. The residual activity (DYRK4 (human)) was 97.7%, the residual activity (FGFR3 (human)) was 86.8% and the residual activity [2] was 38.8%. The residual activity (CLK1 (human)) was 102%, the residual activity (FRK (human)) was 86.5% and the residual activity (ABL2 (human)) was 70.5%. For the same compound, the residual activity (BRSK1 (human)) was 89.1%, the residual activity [3] was 96% and the residual activity (STK24 (human)) was 87.3%. The residual activity (MINK1 (human)) was 84.4%, the residual activity (FGFR1 (human)) was 83.3% and the residual activity (MERTK (human)) was 92.6%. The residual activity (PTK2B (human)) was 100%, the residual activity (DSTYK (human)) was 97.6% and the residual activity (MAPK8 (human)) was 74.5%. It also gave a residual activity (AKT1 (human)) of 113%, a residual activity (PAK4 (human)) of 107% and a residual activity (GRK7 (human)) of 94.1%.
